What is called pIC50 is the IC50 on a negative log10 scale, so that one unit is a factor of ten. A high value points to a low IC50. As a reminder, the pKd is the Kd on a negative log10 scale, so that one unit is a factor of ten. Read a low pKd as a large Kd.

pIC50, pKd: −log10 of the molar value. Activity calls are given as the source filed them. The rule behind the calls is not given here.

Experiment [1] relates to HT-29. As to the kind of experiment: Cytotoxicity against human HT-29 cells after 48 hrs by Resazurin assay. The settings on record: HT-29, 48 h. For orientation: The colour change of resazurin is a common sign of viable cells or microbes.
Experiment [2] has as its system HeLa. As to the kind of experiment: Antimitotic activity in human HeLa cells assessed as change in dipolar spindle formation in metaphase at 1 nM after 6 hrs by DAPI staining-based immunofluorescence analysis. The class given is functional, cell-based.
A further experiment deals with A549. The experiment is described as follows: Cytotoxicity against human A549 cells after 48 hrs by WST-8 assay. The settings on record: A549, 48 h. The class given is functional, cell-based. For orientation: Formazan colour is commonly taken as a measure of viable cells.
Experiment [3] deals with HeLa. The experiment is described as follows: Antimitotic activity in human HeLa cells assessed as multipolar spindle formation at 3 nM after 6 hrs by DAPI staining-based immunofluorescence analysis. The class given is functional, cell-based.
Experiment [4] has as its system HeLa. As to the kind of experiment: Antimitotic activity in human HeLa cells assessed as microtubule network damage at interphase at 1 nM after 6 hrs by DAPI staining-based immunofluorescence analysis. The format is functional, cell-based.
Experiment [5] relates to HeLa. As to the kind of experiment: Cytotoxicity against human HeLa cells after 48 hrs by WST-8 assay. The class given is functional, cell-based.
The subject of experiment [6] is HeLa. The experiment is described as follows: Antimitotic activity in human HeLa cells assessed as disruption of interphase microtubule network at 3 nM after 6 hrs by DAPI staining-based immunofluorescence analysis. The class given is functional, cell-based.
Experiment [7] has as its system HT-29. As to the kind of experiment: Cytotoxicity against human HT-29 cells after 48 hrs by resazurin assay. The format is functional, cell-based. The settings on record: HT-29, 48 h.
For experiment [8], the system named is HeLa. The experiment is described as follows: Antimitotic activity in human HeLa cells assessed as disruption of interphase microtubule network at 10 nM after 6 hrs by DAPI staining-based immunofluorescence analysis. The format is functional, cell-based.
Experiment [9] is described as follows: Inhibition of bovine brain microtubule polymerization by spectrophotometric analysis. Also on record: species or system Bos taurus.
The target in the next experiment is tubulin (Sus scrofa). The experiment is described as follows: Binding affinity to porcine tubulin by spectrophotometric analysis.

Consider `COc1ccc(C(=O)c2cccc(/C=c3\[nH]c(=O)/c(=C/c4nc[nH]c4C(C)(C)C)[nH]c3=O)c2)c(OC)c1`, for which the pIC50 with HT-29 [1] is 5.74.
`COc1cc(C(=O)c2cccc(/C=c3\[nH]c(=O)/c(=C/c4nc[nH]c4C(C)(C)C)[nH]c3=O)c2)cc(OC)c1OC` showed a pIC50 in the experiment with HT-29 [1] of 5.60.
In the experiment with HT-29 [1], `COc1ccc(C(=O)c2cccc(/C=c3\[nH]c(=O)/c(=C/c4nc[nH]c4C(C)(C)C)[nH]c3=O)c2)cc1` showed a pIC50 of 8.42.
As for `COc1ccc(/C=C\c2cc(OC)c(OC)c(OC)c2)cc1O` [COMBRETASTATIN A4], the result with HeLa [2], with HeLa [4] and in the experiment on HeLa [6] was inactive. For the same molecule, the pIC50 with A549 is 8.28; in the experiment on HeLa [5] it was 8.66; in the experiment on HT-29 [7], 4.92; in experiment [9], 6.26. For the same molecule, the result in the experiment on HeLa [3] and with HeLa [8] was Active.
The molecule `CC(C)(C)c1[nH]cnc1/C=c1\[nH]c(=O)/c(=C/c2cccc(C(=O)c3cccc(F)c3)c2)[nH]c1=O` showed a negative logarithm of the IC50 (pIC50) in the experiment on HT-29 [1] of 9.22.
In the case of `CC(C)(C)c1[nH]cnc1/C=c1\[nH]c(=O)/c(=C/c2cccc(C(=O)c3ccc(Br)cc3)c2)[nH]c1=O`, the pIC50 in the experiment on HT-29 [1] was 8.40.
In the experiment on HT-29 [1], `CC(C)(C)c1[nH]cnc1/C=c1\[nH]c(=O)/c(=C/c2cccc(C(O)c3ccccc3)c2)[nH]c1=O` (centres undefined) gave a pIC50 of 7.39.
Still for that read-out and setting: then `CC(C)(C)c1[nH]cnc1/C=c1\[nH]c(=O)/c(=C/c2cccc(C(=O)c3cccc(Cl)c3)c2)[nH]c1=O`, with 8.70.
`CC(C)(C)c1[nH]cnc1/C=c1\[nH]c(=O)/c(=C/c2cccc(C(=O)c3ccc(Cl)cc3)c2)[nH]c1=O`: the pIC50 in the experiment on HT-29 [1] is 8.96.
Same read-out and setting: then `COc1ccc(C(=O)c2cccc(/C=c3\[nH]c(=O)/c(=C/c4nc[nH]c4C(C)(C)C)[nH]c3=O)c2)cc1OC`, with 5.14.
In the experiment on HT-29 [1], `COc1ccccc1C(=O)c1cccc(/C=c2\[nH]c(=O)/c(=C/c3nc[nH]c3C(C)(C)C)[nH]c2=O)c1` showed a pIC50 of 6.44.
For `COc1cccc(C(=O)c2cccc(/C=c3\[nH]c(=O)/c(=C/c4nc[nH]c4C(C)(C)C)[nH]c3=O)c2)c1`, the pIC50 in the experiment on HT-29 [1] was 7.41.
As for `CC(C)(C)c1[nH]cnc1/C=c1\[nH]c(=O)/c(=C/c2cccc(C(=O)c3ccc(C(F)(F)F)cc3)c2)[nH]c1=O`, the pIC50 in the experiment on HT-29 [1] was 6.83.
For the molecule `CC(C)(C)c1[nH]cnc1/C=c1\[nH]c(=O)/c(=C/c2ccc3c(c2)C(=O)c2ccccc2-3)[nH]c1=O`, in the experiment on HT-29 [7], the pIC50 is 5.55.
Take `CC(C)(C)c1[nH]cnc1/C=c1\[nH]c(=O)/c(=C/c2cccc(C(=O)c3ccccc3Cl)c2)[nH]c1=O`: the pIC50 in the experiment with HT-29 [1] is 8.22.
With `COc1cccc(C(=O)c2cccc(/C=c3\[nH]c(=O)/c(=C/c4nc[nH]c4C(C)(C)C)[nH]c3=O)c2)c1OC`, the pIC50 in the experiment on HT-29 [1] is 6.02. This pIC50 lies 2.20 log units lower than the previous one.
Turning to `COc1cc2c(c(OC)c1OC)-c1ccc(OC)c(=O)cc1[C@@H](NC(C)=O)CC2` [COLCHICINE], the values for the pIC50 with A549, with HT-29 [1] and with HeLa [5] were 7.30, 8.03 and 7.69, respectively.
In the experiment with HT-29 [1], `CC(C)(C)c1[nH]cnc1/C=c1\[nH]c(=O)/c(=C/c2ccc(C(=O)c3ccccc3)cc2)[nH]c1=O` showed a pIC50 of 5.92.
With `CC(C)(C)c1[nH]cnc1/C=c1\[nH]c(=O)/c(=C/c2cccc(C(=O)c3ccccc3F)c2)[nH]c1=O`, the pIC50 with HT-29 [1] was 8.52.
Take `CC(C)(C)c1[nH]cnc1/C=c1\[nH]c(=O)/c(=C/c2cccc(C(=O)c3ccc(F)cc3)c2)[nH]c1=O`: the result in the experiment on HeLa [2] and with HeLa [4] was inactive. In addition, the pIC50 was 9.10 with A549, 9.30 in the experiment with HT-29 [1], 8.77 with HeLa [5] and 6.05 in experiment [9]. The result with HeLa [3], with HeLa [6] and with HeLa [8] was Active. In addition, on tubulin (Sus scrofa), the pKd was 7.14.

For the origin of these results see ChEMBL document CHEMBL2046436, “Synthesis and structure-activity relationships of benzophenone-bearing diketopiperazine-type anti-microtubule agents” (Bioorg Med Chem, 2012).
